Where “and” joins values, the source holds several entries; their conditions need not be identical. Equal values may be shown once. Read-outs that look alike come from different tables or passages of the source. Where a SMILES comes first, the peptide text is derived from it. [ ]: non-standard residue; d: D form. The star is where a group is joined. DOTA = O=C(O)CN1CCN(CC(=O)O)CCN(CC(=O)*)CCN(CC(=O)O)CC1; 1Nal = N[C@@H](Cc1cccc2ccccc12)C(=O)O; NMeNle = CCCC[C@H](NC)C(=O)O
Legend:
human CCK2R = target: T1, human CCK2R (Homo sapiens, UniProt P32239); assay: Competition assay against [125I][3-iodo-Tyr12,Leu15]gastrin-I on A431-CCK2R cells; assay type: binding; conditions: non-labeled peptide, displacement of [125I][3-iodo-Tyr12,Leu15]gastrin-I, 1 h RT
T1 construct: expressed in transfected cells; host or cells: A431 human epidermoid carcinoma cells, stably transfected (plasmid pCR3.1); provided by Dr. Luigi Aloj
T1 sequence (P32239 1-447): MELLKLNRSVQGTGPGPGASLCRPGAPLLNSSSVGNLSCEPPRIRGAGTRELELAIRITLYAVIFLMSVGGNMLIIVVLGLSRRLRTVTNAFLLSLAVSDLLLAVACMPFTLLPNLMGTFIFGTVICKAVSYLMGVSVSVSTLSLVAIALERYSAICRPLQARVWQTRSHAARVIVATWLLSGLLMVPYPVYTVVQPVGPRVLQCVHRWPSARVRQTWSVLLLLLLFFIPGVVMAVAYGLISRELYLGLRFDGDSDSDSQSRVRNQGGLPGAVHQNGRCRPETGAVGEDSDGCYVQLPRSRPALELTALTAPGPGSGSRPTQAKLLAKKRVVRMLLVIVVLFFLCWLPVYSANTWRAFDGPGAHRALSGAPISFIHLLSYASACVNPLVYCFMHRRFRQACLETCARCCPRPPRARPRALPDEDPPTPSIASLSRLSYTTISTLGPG
Experimental: [^125I][3-iodo-Tyr^12,Leu^15]gastrin-I at high molar activity was obtained by HPLC purification and stored in aliquots at −25 °C. Binding assays were carried out using 96-well filter plates (MultiScreenHTS-FB, Merck Group, Darmstadt, Germany) pre-treated with 10 mM TRIS/139 mM NaCl pH 7.4 (2 × 250 µL). For the assay, 200,000–400,000 A431-CCK2R cells per well were prepared in 20 mM HEPES buffer pH 7.4 containing 10 mM MgCl2, 14 µM bacitracin and 0.5% BSA. The cells (n = 3) were incubated with increasing concentrations of the peptide conjugates (0.0003–30,000 nM) and [^125I][3-iodo-Tyr^12,Leu^15]gastrin-I (50,000 cpm) for 1 h at RT. Incubation was interrupted by filtration of the medium and rapid rinsing with ice-cold 10 mM TRIS/139 mM NaCl pH 7.4 (2 × 200 µL) and the filters were measured in the gamma-counter. Half maximal inhibitory concentration (IC50) values were calculated following nonlinear regression with Origin software (Microcal Origin 6.1, Northampton, MA, USA).

[1] = Protein binding in human serum by size exclusion chromatography; assay type: in vitro ADME; conditions: 24 h incubation
Experimental: For protein binding assessment, the radiolabeled DOTA-peptides were incubated in fresh human serum at 37 °C (500 pmol/mL, n = 2). After 1, 4 and 24 h of incubation, two samples were taken for each time point and analyzed by Sephadex G-50 size-exclusion chromatography (GE Healthcare Illustra, Little Chalfont, UK). The percentage of protein binding was determined by measuring the column and the eluate with the gamma-counter.

[2] = Metabolic stability in vivo and radiometabolites (radio-HPLC of blood, urine, liver, kidney); parameters: species or system BALB/c mice
Experimental: Metabolic biodistribution studies were performed in accordance with the ethical standards of the institution and approved by the Austrian Ministry of Science (BMWFW-66.011/0072-V/3b/2019). These studies were carried out in 5- to 7-week-old female BALB/c mice (n = 3) injected with [^177Lu]Lu-1 via a lateral tail vein. To allow monitoring of the metabolites by radio-HPLC, mice were injected with 30 MBq corresponding to 0.8 nmol total peptide. The mice were euthanized by cervical dislocation after different time points of 10 min, 30 min and 1 h p.i. and the urine and a venous blood sample were collected at the time of sacrifice. Liver and kidneys were dissected and homogenized in 20 mM HEPES buffer pH 7.3 at a ratio of 1:1 (v/v) with an Ultra-Turrax T8 homogenizer (IKA-Werke, Staufen, Germany) for 1 min at RT. Before radio-HPLC analysis, the samples (except urine) were treated with ACN at a ratio of 1:1 (v/v) to precipitate proteins, centrifuged at 2000× g for 2 min and diluted with water at a ratio of 1:1 (v/v). For HPLC analysis of the samples, the analytical HPLC system described above with a flow rate of 1 mL/min was used together with the following optimized water/ACN/0.1% TFA gradient to allow a better separation of [^177Lu]Lu-1 and the different radiometabolites: 0–7 min 1–7% ACN, 7–8 min 7–10% ACN, 8–18 min 10–18% ACN, 18–20 min 18–32% ACN, 20–27 min 32% ACN, 27–37 min […], 37–40 min 80% ACN, 40–40.1 min 80–1% ACN, 40.1–45 min 1% ACN. Urine was measured with the low-sensitivity loop of the radiodetector. The remaining samples were analyzed with the high-sensitivity loop due to the lower radioactivity present in blood, liver and kidney homogenate. To quantify the percentage of intact [^177Lu]Lu-1 and [^177Lu]Lu-M1 showing some overlap in the radiochromatogram when using the high-sensitivity loop of the radiodetector, the two radiopeptides were co-injected at different known ratios to enable a more accurate separation and integration of the two peaks (see supporting Figure S4). Mice from the metabolic biodistribution studies were subjected to a further dissection of all remaining tissues (blood, lung, heart, femur, spleen, muscle, intestine, pancreas and stomach). All organs, also including liver and kidneys, were weighed, and their radioactivity was measured in the gamma counter together with a standard and the residual body. To quantify the uptake of radioactivity in liver and kidneys, a part of liver and kidney homogenate was measured in the gamma counter to extrapolate the radioactivity for the whole organ.

[3] = Stability in fresh human serum (radio-HPLC); assay type: in vitro ADME; conditions: 24 h incubation, 37 °C
Experimental: In vitro stability studies for the characterization of the metabolic stability of the radiolabeled peptide analogs in human serum were carried out with [^177Lu]Lu-1, [^177Lu]Lu-M1, [^177Lu]Lu-M2, [^177Lu]Lu-M3 and [^177Lu]Lu-M4 (n = 2). Additional stability studies in rat liver and kidney homogenates were performed for [^177Lu]Lu-1 (n = 2). Tissue homogenates were prepared from dissected organs by homogenization for 1 min at RT (IKA-Werke, Staufen, Germany) in 20 mM HEPES buffer pH 7.3 (30% v/v). The radioligands were incubated in the different media at a concentration of 500 pmol/mL (corresponding to an activity of 6–11 MBq). After incubation at 37 °C at different time points for up to 24 h, a 100 µl sample was taken in duplicates and analyzed by HPLC. Samples obtained from human serum and rat homogenates were treated with ACN at a ratio of 1:1.5 (v/v) to precipitate proteins, centrifuged (14,000 rpm, 2 min, centrifuge 5424, Eppendorf AG, Germany) and diluted with water at a ratio of 1:1 (v/v). A 100 µl aliquot of this solution was injected into the radio HPLC system. The degradation of the radioligand was evaluated based on the radiochemical purity after radiolabeling and the percentage of intact radiopeptide observed during incubation in the different media.

[4] = Distribution coefficient (logD) in octanol/PBS; assay type: physicochemical
Experimental: The mixture was vigorously vortexed at room temperature over a period of 15 min using a small shaker (MS3 Basic, IKA, Staufen, Germany) with speed of 1500 rpm.

[5] = blood, 30 min p.i., mice injected i.v. with [177Lu]Lu-1
[6] = blood, 60 min p.i., mice injected i.v. with [177Lu]Lu-1
[7] = blood, different time points up to 1 h p.i.
[8] = octanol/PBS pH 7.4, read-out: logD

CCCC[C@@H](C(=O)N[C@@H](CC(=O)O)C(=O)N[C@@H](Cc1cccc2ccccc12)C(N)=O)N(C)C(=O)[C@H](Cc1c[nH]c2ccccc12)NC(=O)CNC(=O)[C@H](Cc1ccc(O)cc1)NC(=O)[C@@H]1CCCN1C(=O)[C@@H](CCC(=O)O)NC(=O)CN1CCN(CC(=O)O)CCN(CC(=O)O)CCN(CC(=O)O)CC1 [compound 1, DOTA-DGlu-Pro-Tyr-Gly-Trp-(N-Me)Nle-Asp-1Nal-NH2] ({DOTA}-[dE]PYGW[NMeNle]D[1Nal]-NH2)
IC50 (human CCK2R): 0.69 ± 0.09 nM

CCCC[C@@H](C(=O)N[C@@H](CC(=O)O)C(=O)O)N(C)C(=O)[C@H](Cc1c[nH]c2ccccc12)NC(=O)CNC(=O)[C@H](Cc1ccc(O)cc1)NC(=O)[C@@H]1CCCN1C(=O)[C@@H](CCC(=O)O)NC(=O)CN1CCN(CC(=O)O)CCN(CC(=O)O)CCN(CC(=O)O)CC1 [[^177Lu]Lu-M2, metal not drawn] ({DOTA}-[dE]PYGW[NMeNle]D-OH; C-terminus assumed)
fraction unbound [1]: 0.519
percentage of intact radiopeptide / radiometabolite [2, 5]: 3.8%
percentage of intact radiopeptide / radiometabolite [2, 6]: 7.3%
amount of radiometabolite [2, 7]: < 8%
percentage of intact radiopeptide / radiometabolite ([2]; kidney, 30 min p.i.): 20.7%
percentage of intact radiopeptide / radiometabolite ([2]; kidney, 60 min p.i.): 12% and 12.3%
percentage of intact radiopeptide / radiometabolite ([2]; liver, 30 min p.i.): 7.2%
percentage of intact radiopeptide / radiometabolite ([2]; liver, 60 min p.i.): 6.9%
percentage of intact radiopeptide / radiometabolite ([2]; urine, 30 min p.i.): 40.5%
percentage of intact radiopeptide / radiometabolite ([2]; urine, 60 min p.i.): 40.3%
amount of radiometabolite ([2]; urine, time point not stated): ~ 40%
intact radiopeptide [3]: 98.1 ± 0.3%
logD [4, 8]: -4.18 ± 0.17

CCCC[C@@H](C(=O)N[C@@H](CC(=O)O)C(=O)O)N(C)C(=O)[C@H](Cc1c[nH]c2ccccc12)NC(=O)CNC(=O)[C@H](Cc1ccc(O)cc1)NC(=O)[C@@H]1CCCN1C(=O)[C@@H](CCC(=O)O)NC(=O)CN1CCN(CC(=O)O)CCN(CC(=O)O)CCN(CC(=O)O)CC1 [M2, DOTA-DGlu-Pro-Tyr-Gly-Trp-(N-Me)Nle-Asp] ({DOTA}-[dE]PYGW[NMeNle]D-OH; C-terminus assumed)
IC50 (human CCK2R): > 1000 nM

CCCC[C@@H](C(=O)O)N(C)C(=O)[C@H](Cc1c[nH]c2ccccc12)NC(=O)CNC(=O)[C@H](Cc1ccc(O)cc1)NC(=O)[C@@H]1CCCN1C(=O)[C@@H](CCC(=O)O)NC(=O)CN1CCN(CC(=O)O)CCN(CC(=O)O)CCN(CC(=O)O)CC1 [M3, DOTA-DGlu-Pro-Tyr-Gly-Trp-(N-Me)Nle] ({DOTA}-[dE]PYGW[NMeNle]-OH; C-terminus assumed)
IC50 (human CCK2R): > 1000 nM

O=C(O)CC[C@@H](NC(=O)CN1CCN(CC(=O)O)CCN(CC(=O)O)CCN(CC(=O)O)CC1)C(=O)N1CCC[C@H]1C(=O)N[C@@H](Cc1ccc(O)cc1)C(=O)NCC(=O)N[C@@H](Cc1c[nH]c2ccccc12)C(=O)O [[^177Lu]Lu-M4, metal not drawn] ({DOTA}-[dE]PYGW-OH; C-terminus assumed)
amount of radiometabolite ([2]; mouse, in vivo): < 3%
logD ([4]; pH 7.4): -4.19 ± 0.3

CCCC[C@@H](C(=O)N[C@@H](CC(=O)O)C(=O)N[C@@H](Cc1cccc2ccccc12)C(=O)O)N(C)C(=O)[C@H](Cc1c[nH]c2ccccc12)NC(=O)CNC(=O)[C@H](Cc1ccc(O)cc1)NC(=O)[C@@H]1CCCN1C(=O)[C@@H](CCC(=O)O)NC(=O)CN1CCN(CC(=O)O)CCN(CC(=O)O)CCN(CC(=O)O)CC1 [M1, DOTA-DGlu-Pro-Tyr-Gly-Trp-(N-Me)Nle-Asp-1Nal-COOH] ({DOTA}-[dE]PYGW[NMeNle]D[1Nal]-OH)
IC50 (human CCK2R): > 1000 nM

O=C(O)CC[C@@H](NC(=O)CN1CCN(CC(=O)O)CCN(CC(=O)O)CCN(CC(=O)O)CC1)C(=O)N1CCC[C@H]1C(=O)N[C@@H](Cc1ccc(O)cc1)C(=O)NCC(=O)N[C@@H](Cc1c[nH]c2ccccc12)C(=O)O [M4, DOTA-DGlu-Pro-Tyr-Gly-Trp] ({DOTA}-[dE]PYGW-OH; C-terminus assumed)
IC50 (human CCK2R): > 1000 nM

O=C(O)CC[C@@H](NC(=O)CN1CCN(CC(=O)O)CCN(CC(=O)O)CCN(CC(=O)O)CC1)C(=O)N1CCC[C@H]1C(=O)N[C@@H](Cc1ccc(O)cc1)C(=O)NCC(=O)O [[^177Lu]Lu-M5, metal not drawn] ({DOTA}-[dE]PYG-OH; C-terminus assumed)
amount of radiometabolite ([2]; mouse, in vivo): < 10%

CCCC[C@@H](C(=O)O)N(C)C(=O)[C@H](Cc1c[nH]c2ccccc12)NC(=O)CNC(=O)[C@H](Cc1ccc(O)cc1)NC(=O)[C@@H]1CCCN1C(=O)[C@@H](CCC(=O)O)NC(=O)CN1CCN(CC(=O)O)CCN(CC(=O)O)CCN(CC(=O)O)CC1 [[^177Lu]Lu-M3, metal not drawn] ({DOTA}-[dE]PYGW[NMeNle]-OH; C-terminus assumed)
fraction unbound [1]: 0.766
percentage of intact radiopeptide / radiometabolite [2, 5]: 17.0%
percentage of intact radiopeptide / radiometabolite [2, 6]: 20.4%
amount of radiometabolite [2, 7]: < 21%
percentage of intact radiopeptide / radiometabolite ([2]; kidney, 30 min p.i.): 7.9%
percentage of intact radiopeptide / radiometabolite ([2]; liver, 30 min p.i.): 8.5%
percentage of intact radiopeptide / radiometabolite ([2]; liver, 60 min p.i.): 5.6%
percentage of intact radiopeptide / radiometabolite ([2]; urine, 30 min p.i.): 9.5%
percentage of intact radiopeptide / radiometabolite ([2]; urine, 60 min p.i.): 9.8%
intact radiopeptide [3]: 29.7 ± 0.8%
intact radiopeptide ([3]; listed as radiolabeled M3): less than 30%
logD [4, 8]: -4.13 ± 0.11

O=C(O)CC[C@@H](NC(=O)CN1CCN(CC(=O)O)CCN(CC(=O)O)CCN(CC(=O)O)CC1)C(=O)N1CCC[C@H]1C(=O)N[C@@H](Cc1ccc(O)cc1)C(=O)O [[^177Lu]Lu-M6, metal not drawn] ({DOTA}-[dE]-Pro-Tyr-OH; C-terminus assumed)
amount of radiometabolite ([2]; mouse, in vivo): ~ 20%

From article PMC7583830 (Molecules, 2020)
